Where two headings read alike, the source gives them in different places.
Assays:
[1] = target: recombinant Aga-I (alkaline-α-galactosidase I) (Cucumis melo, UniProt A0ABM3L1M0); assay: α-galactosidase assay of E. coli extracts: substrate specificity of recombinant Aga-I; assay type: biochemical; conditions: for Activity (calculated specific activity): recombinant Aga-I, substrate 10 mM, pH 8; for activity of recombinant Aga-I with nitrophenyl substrates: recombinant Aga-I extract
Description: α-galactosidase assay of E. coli extracts—α-galactosidase activity was assayed as described by Smart and Pharr [Smart and Pharr (1980) Plant Physiol. 66:731-734] and as performed by Gao and Schaffer (1999) Plant Physiol. 119:979-987]. Reaction was initiated by adding 50 μl enzyme aliquot to 200 μl McIlvaine buffer (made by mixing stock solutions of 0.1M citric acid and 0.2M sodium hydrogen phosphate to achieve pH of 5.0 and 7.0 for the assay of acid and alkaline activity, respectively) and 50 μl substrate (final concentration, 5 mM for pNPG and 10 mM for the natural substrates). Optimum pH for galactosidase activity was determined using the following reaction buffers: Mcllvaine buffer, over a pH range of 4 to 7, 100 mM Hepes buffer over a pH range of 7 to 8, or 50 mM Tris buffer over a pH range of 8 to 8.7. […] In addition, substrate concentration dependence of the reaction was measured by varying the substrate concentrations from 0-10 mM. Km and Vmax values were calculated using Lineweaver-Burk plots.

[2] = test system: alkaline α-galactosidase from Cucurbita pepo leaves; conditions: cited from earlier work; for affinity as substrate: Gaudreault and Webb; for inhibition of the enzyme's activity by the reaction product: Gaudreault and Webb 1983
[3] = substrate: OC[C@H]1O[C@H](OC[C@H]2O[C@H](OC[C@H]3O[C@H](O[C@]4(CO)O[C@H](CO)[C@@H](O)[C@@H]4O)[C@H](O)[C@@H](O)[C@@H]3O)[C@H](O)[C@@H](O)[C@H]2O)[C@H](O)[C@@H](O)[C@H]1O; assay: purified protein, by the assay type; conditions: other: recombinant Aga-I, pH 8, Lineweaver-Burk plots
[4] = substrate: OC[C@H]1O[C@H](OC[C@H]2O[C@H](O[C@]3(CO)O[C@H](CO)[C@@H](O)[C@@H]3O)[C@H](O)[C@@H](O)[C@@H]2O)[C@H](O)[C@@H](O)[C@H]1O; assay: purified protein, by the assay type; conditions: other: recombinant Aga-I, pH 8, Lineweaver-Burk plots
[5] = pH and temperature dependence of α-galactosidase activity of recombinant Aga-I and Aga-II; assay type: biochemical; conditions: for pH of maximal α-galactosidase activity: extracts of transformed E. coli, pNPG, FIG. 4
Description: α-galactosidase assay of E. coli extracts—α-galactosidase activity was assayed as described by Smart and Pharr [Smart and Pharr (1980) Plant Physiol. 66:731-734] and as performed by Gao and Schaffer (1999) Plant Physiol. 119:979-987]. Reaction was initiated by adding 50 μl enzyme aliquot to 200 μl McIlvaine buffer (made by mixing stock solutions of 0.1M citric acid and 0.2M sodium hydrogen phosphate to achieve pH of 5.0 and 7.0 for the assay of acid and alkaline activity, respectively) and 50 μl substrate (final concentration, 5 mM for pNPG and 10 mM for the natural substrates). […] Substrates used were the synthetic substrates based on p-nitrophenol (pNP-sugars), including the pNPa-gal (Sigma) and the natural substrates stachyose, raffinose and melibiose. In addition, substrate concentration dependence of the reaction was measured by varying the substrate concentrations from 0-10 mM. Km and Vmax values were calculated using Lineweaver-Burk plots.

Molecule: 6-O-α-D-galactopyranosyl-D-glucose [Melibiose]
- Activity (calculated specific activity) [1]: 124 nmol/mg protein/minute
- affinity as substrate [2]: low affinity

Molecule: OC[C@H]1O[C@H](OC[C@H]2O[C@H](O[C@]3(CO)O[C@H](CO)[C@@H](O)[C@@H]3O)[C@H](O)[C@@H](O)[C@@H]2O)[C@H](O)[C@@H](O)[C@H]1O [Raffinose, O-α-D-galactopyranosyl-(1-6)-O-α-D-glucopyranosyl-(1-2)-beta-D-fructofuranoside]
- Activity (calculated specific activity) [1]: 482 nmol/mg protein/minute
- affinity as substrate [2]: low affinity

Molecule: OC[C@H]1O[C@H](OC[C@H]2O[C@H](OC[C@H]3O[C@H](O[C@]4(CO)O[C@H](CO)[C@@H](O)[C@@H]4O)[C@H](O)[C@@H](O)[C@@H]3O)[C@H](O)[C@@H](O)[C@H]2O)[C@H](O)[C@@H](O)[C@H]1O [Stachyose, O-α-D-galactopyranosyl-(1-6)-O-α-D-galactopyranosyl-(1-6)-O-α-D-glucopyranosyl-(1-2)-beta-D-fructofuranoside]
- Activity (calculated specific activity) [1]: 645 nmol/mg protein/minute

Molecule: C[C@@H]1O[C@@H](Oc2ccc([N+](=O)[O-])cc2)[C@@H](O)[C@H](O)[C@@H]1O [pNP-Fuc]
- activity of recombinant Aga-I with nitrophenyl substrates [1]: no activity

Molecule: CC(=O)N[C@H]1[C@H](Oc2ccc([N+](=O)[O-])cc2)O[C@H](CO)[C@@H](O)[C@@H]1O [pNP-NacG]
- activity of recombinant Aga-I with nitrophenyl substrates [1]: no activity

Molecule: O=[N+]([O-])c1ccc(O[C@H]2O[C@H](CO)[C@@H](O)[C@H](O)[C@H]2O)cc1 [pNP-αGlu]
- activity of recombinant Aga-I with nitrophenyl substrates [1]: no activity

Molecule: O=[N+]([O-])c1ccc(O[C@H]2O[C@H](CO)[C@@H](O)[C@H](O)[C@@H]2O)cc1 [pNP-αMan]
- activity of recombinant Aga-I with nitrophenyl substrates [1]: no activity

Molecule: O=[N+]([O-])c1ccc(O[C@@H]2O[C@H](CO)[C@H](O)[C@H](O)[C@H]2O)cc1 [pNP-βGal]
- activity of recombinant Aga-I with nitrophenyl substrates [1]: some activity

Molecule: O=[N+]([O-])c1ccc(O[C@@H]2O[C@H](CO)[C@@H](O)[C@H](O)[C@H]2O)cc1 [pNP-βGlu]
- activity of recombinant Aga-I with nitrophenyl substrates [1]: no activity

Molecule: O=[N+]([O-])c1ccc(O[C@@H]2O[C@H](CO)[C@@H](O)[C@H](O)[C@@H]2O)cc1 [pNP-βMan]
- activity of recombinant Aga-I with nitrophenyl substrates [1]: no activity

Molecule: OC[C@H]1O[C@H](O)[C@H](O)[C@@H](O)[C@H]1O [α-D-galactose]
- inhibition of the enzyme's activity by the reaction product [2]: strong inhibitor
- inhibition of the enzyme's activity by the reaction product ([2]; listed as α-galactose): strongly inhibited

B1: recombinant Aga-I (alkaline-α-galactosidase I) (Cucumis melo) (protein)
chain: MTVGAGITISDANLTVLGNRVLSDVHNNITLTAAPGGGVMNGAFIGVQSDQIGSRRVFPIGKLIGLRFLCAFRFKLWWMTQRMGCSGQEVPFETQFLVVETRDGSNIAGNGEEGDAVYTVFLPILEGDFRAVLQGNDNNEIEICLESGDPSVDGFEGSHLVFVGAGSDPFETITYAVKSVEKHLQTFAHRERKKMPDILNWFGWCTWDAFYTDVTSDGVKKGLESFENGGIPPKFVIIDDGWQSVAKDATSADCKADNTANFANRLTHIKENYKFQKDGKEGERIENPALGLQHIVSYMKEKHATKYVYVWHAITGYWGGVSAGVKEMEQYESKIAYPVASPGVESNEPCDALNSITKTGLGLVNPEKVFNFYNEQHSYLASAGVDGVKVDVQNILETLGAGHGGRVKLARKYHQALEASISRNFQDNGIISCMSHNTDGLYSSKRNAVIRASDDFWPRDPASHTIHIASVAYNSLFLGEFMQPDWDMFHSLHPMAEYHGAARAVGGCAIYVSDKPGQHDFNLLKKLVLPDGSILRAKLPGRPTKDCLFTDPARDGKSLLKIWNLNDLSGVVGVFNCQGAGWCKVGKKNLIHDENPDTITGVIRAKDVSYLWKIAGESWTGDAVIFSHLAGEVVYLPQDASMPITLKPREFDVFTVVPVKELVNDIKFAPIGLIKMFNSGGAVKEMNHQPGSSNVSLKVRGSGPFGAYSSSKPKRVAVDSEEVEFMYDEGGLITIDLKVPEKELYLWDIRIEL
- Km [3]: 1900 µM
- Km [4]: 1800 µM

B2: Aga-I: Cucumis melo alkaline-α-galactosidase I, SEQ ID NO: 6, encoded by SEQ ID NO: 5 (protein)
chain: MTVGAGITISDANLTVLGNRVLSDVHNNITLTAAPGGGVMNGAFIGVQSDQIGSRRVFPIGKLIGLRFLCAFRFKLWWMTQRMGCSGQEVPFETQFLVVETRDGSNIAGNGEEGDAVYTVFLPILEGDFRAVLQGNDNNEIEICLESGDPSVDGFEGSHLVFVGAGSDPFETITYAVKSVEKHLQTFAHRERKKMPDILNWFGWCTWDAFYTDVTSDGVKKGLESFENGGIPPKFVIIDDGWQSVAKDATSADCKADNTANFANRLTHIKENYKFQKDGKEGERIENPALGLQHIVSYMKEKHATKYVYVWHAITGYWGGVSAGVKEMEQYESKIAYPVASPGVESNEPCDALNSITKTGLGLVNPEKVFNFYNEQHSYLASAGVDGVKVDVQNILETLGAGHGGRVKLARKYHQALEASISRNFQDNGIISCMSHNTDGLYSSKRNAVIRASDDFWPRDPASHTIHIASVAYNSLFLGEFMQPDWDMFHSLHPMAEYHGAARAVGGCAIYVSDKPGQHDFNLLKKLVLPDGSILRAKLPGRPTKDCLFTDPARDGKSLLKIWNLNDLSGVVGVFNCQGAGWCKVGKKNLIHDENPDTITGVIRAKDVSYLWKIAGESWTGDAVIFSHLAGEVVYLPQDASMPITLKPREFDVFTVVPVKELVNDIKFAPIGLIKMFNSGGAVKEMNHQPGSSNVSLKVRGSGPFGAYSSSKPKRVAVDSEEVEFMYDEGGLITIDLKVPEKELYLWDIRIEL
modifications: Cucumis melo
- pH of maximal α-galactosidase activity [5]: 8 pH
- galactosidase activity at pH 9 ([5]; pH 9, data not shown): activity was still observed
- pH range of highest galactosidase activity ([5]; recombinant Aga-I, data not shown): 7.5-8 pH

B3: Aga-II: Cucumis melo alkaline α-galactosidase II, SEQ ID NO: 10, encoded by SEQ ID NO: 9 (protein)
chain: MTVTPKISVNDGNLVVHGKTILTGVPDNIVLTPGSGLGLVAGAFIGATASNSKSLHVFPVGVLEGTRFLCCFRFKLWWMTQRMGTSGRDIPFETQFLLMESKGNDGEDPDNSSTIYTVFLPLLEGQFRAALQGNEKNEMEICLESGDNTVETNQGLSLVYMHAGTNPFEVITQAVKAVEKHTQTFLHREKKKLPSFLDWFGWCTWDAFYTDVTAEGVVEGLKSLSEGGAPPKFLIIDDGWQQIEAKPKDADCVVQEGAQFASRLSGIKENHKFQKNGNNYDQVPGLKVVVDDAKKQHKVKFVYAWHALAGYWGGVKPASPGMEHYDSALAYPVQSPGMLGNQPDIVVDSLAVHGIGLVHPKKVFNFYNELHSYLASCGIDGVKVDVQNIIETLGAGHGGRVTLTRSYHQALEASIARNFSDNGCIACMCHNTDSLYSAKQTAVVRASDDYYPRDPASHTIHISSVAYNSLFLGEFMQPDWDMFHSLHPTAEYHGAARAIGGCAIYVSDKPGNHNFDLLKKLVLPDGSVLRAQLPGRPTRDSLFNDPARDGTSLLKIWNMNKCSGVVGVFNCQGAGWCRITKKTRIHDESPGTLTTSVRAADVDAISQVAGADWKGDTIVYAYRSGDLIRLPKGASVPVTLKVLEYDLLHISPLKDIASNISFAPIGLLDMFNTGGAVEQVNVQVVEPIPEFDGEVASELTCSLPNDRPPTATITMKARGCRRFGLYSSQRPLKCSVDKVDVDFVYDEVTGLVTFEIPIPTEEMYRWNIEIQV
modifications: Cucumis melo
- pH of maximal α-galactosidase activity [5]: 8 pH
